Bridge positions count the residues as written; N and C are the ends. Square brackets hold non-standard residues; d marks the D form. Peptide text beside a SMILES is read from it. hPhe(3,5-F2-4-CF3) = N[C@@H](CCc1cc(F)c(C(F)(F)F)c(F)c1)C(=O)O; NEtPhe(4-Me) = CCN[C@@H](Cc1ccc(C)cc1)C(=O)O; NMeGly(cPent) = CN[C@H](C(=O)O)C1CCCC1; NMeD = CN[C@@H](CC(=O)O)C(=O)O; NMeL = CN[C@@H](CC(C)C)C(=O)O; NMeA = CN[C@@H](C)C(=O)O; Ac5c = NC1(C(=O)O)CCCC1; Aze = O=C(O)[C@@H]1CCN1; Sar = CNCC(=O)O
Tests used:
[1] = target: Kras-SOS1 protein-protein interaction (Homo sapiens, UniProt P01116, G12D); experiment: Kras-SOS1 protein-protein interaction inhibition (KrasG12D-SOS PPI) using AlphaScreen; format: binding; conditions: biotin-tagged human Kras (GDP-loaded) and His-tagged human SOS1, AlphaScreen
Sequence of Kras-SOS1 protein-protein interaction (P01116 whole entry G12D): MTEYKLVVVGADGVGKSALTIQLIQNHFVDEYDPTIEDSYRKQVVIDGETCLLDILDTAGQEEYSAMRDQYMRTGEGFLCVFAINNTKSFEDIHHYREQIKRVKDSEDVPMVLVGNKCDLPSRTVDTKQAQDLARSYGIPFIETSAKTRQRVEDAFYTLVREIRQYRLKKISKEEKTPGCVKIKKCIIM
Protocol: Kras-SOS1 protein-protein interaction inhibition (PPI) can be performed by a method known to those skilled in the art using a device, a reagent, or the like available from commercial suppliers. Specifically, biotin-tagged human Kras and His-tagged human SOS1 enzymes expressed in E. coli and loaded with GDP after purification were used to measure PPI by energy transfer from nickel-bound donor beads to streptavidin-bound acceptor beads. This measurement is performed by irradiating the donor beads with light of 680 nm to induce energy transfer to the acceptor beads via singlet oxygen, and detecting light of 520 to 620 nm from the acceptor beads. Based on the inhibition of the control group without Compound 1, 50% inhibitory concentration (IC50 value) was calculated.

[2] = test system: Human pancreatic cancer strain AsPC-1; experiment: AsPC-1 cell growth inhibitory activity (AsPC-1CGI); format: cell-based; conditions: AsPC-1 cells, 96 hours, CellTiter-Glo; read-out: IC50 value (50% growth inhibition concentration)
Protocol: AsPC-1 cell growth inhibitory activity can be performed by methods known to those skilled in the art using devices, reagents, cell lines, and the like available from commercial suppliers. Specifically, Compound 1 was serially diluted with dimethyl sulfoxide, then 200 nL of the dilution was dispensed into the U-bottom 96 well plate with Labcyte Echo. Human pancreatic cancer strain AsPC-1 was added to RPMI-1640 medium supplemented with 15% bovine fetal serum to prepare a cell suspension of 1000 cells/100 μL. The cell suspension was dispensed by 100 μL per well to Compound 1-added plates, and cultured in a 37° C., 5% carbon dioxide gas incubator. After 96 hours, 80 μL of CellTiter-Glo (Promega Corporation) was added to each well, and […] was measured. Cell growth inhibition (CGI) of the test compound was calculated as 50% growth inhibition concentration (IC50 value) from the growth inhibition rate of the case with addition of Compound I to the control without addition of Compound 1.

SMILES: CC[C@H](C)[C@@H]1NC(=O)[C@H](CC(C)C)N(C)C(=O)C[C@@H](C(=O)N(C)C)N(C)C(=O)[C@H](C2CCCC2)N(C)C(=O)C2(CCCC2)NC(=O)[C@@H]2CCCN2C(=O)[C@H](CCc2cc(F)c(C(F)(F)F)c(F)c2)NC(=O)CN(C)C(=O)[C@H](Cc2ccc(C)cc2)N(CC)C(=O)[C@@H]2CCN2C(=O)[C@H](C)N(C)C1=O [Compound 1, (5S,8S,11S,15S,18S,23aS,29S,35S,37aS)-8-((S)-sec-butyl)-18-cyclopentyl-29-(3,5-difluoro-4-(trifluoromethyl)phenethyl)-36-ethyl-11-isobutyl-N,N,5,6,12,16,19,33-octamethyl-35-(4-methylbenzyl)-4,7,10,13,17,20,23,28,31,34,37-undecaoxotetratriacontahydro-2H,4H-spiro[azeto[2,1-u]pyrrolo[2,1-i][1,4,7,10,13,16,19,22,25,28,31]undecaazacyclotetratriacontin-21,1′-cyclopentane]-15-carboxamide] ([NMeL]I[NMeA][Aze][NEtPhe(4-Me)][Sar][hPhe(3,5-F2-4-CF3)]P[Ac5c][NMeGly(cPent)][NMeD]-NMe2; lactam N-11)
- IC50 [1]: 1 nM
- IC50 [2]: ≤ 20 nM
